Experimental data published in US9624170B2, “4-(piperrazin-1-yl)-pyrrolidin-2-one compounds as monoacylglycerol lipase (MAGL) inhibitors” (TAKEDA PHARMACEUTICAL COMPANY LIMITED, priority 2013, dated 2017).

biological target: T1, human MAGL (His-hMAGL) (Homo sapiens, UniProt Q99685); assay: Measurement of MAGL inhibitory activity by mass spectrometry; assay type: biochemical; conditions: 10 μM test compound; substrate 2-arachidonylglycerol, arachidonic acid by RapidFire-mass spectrometry
T1 construct: made in house; host or cells: Escherichia coli BL21(DE3)
T1 sequence (Q99685 1-303): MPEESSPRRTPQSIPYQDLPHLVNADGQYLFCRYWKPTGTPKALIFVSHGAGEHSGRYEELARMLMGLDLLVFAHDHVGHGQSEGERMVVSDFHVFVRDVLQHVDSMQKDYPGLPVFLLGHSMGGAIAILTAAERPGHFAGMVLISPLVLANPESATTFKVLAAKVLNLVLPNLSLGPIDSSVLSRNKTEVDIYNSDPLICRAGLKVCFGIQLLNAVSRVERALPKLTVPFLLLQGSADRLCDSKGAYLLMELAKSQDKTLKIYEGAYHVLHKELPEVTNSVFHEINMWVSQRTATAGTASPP
How it was run: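 His-tagged human MAGL was reacted with 150 μM 2-arachidonylglycerol substrate (stock, added by 5 μL) for 10 min at room temperature, then stopped with formic acid. Arachidonic acid product was quantified by RapidFire–triple-quadrupole MS in negative SRM mode, corrected by arachidonic acid-d8, and converted to percent inhibition.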

inhibition at 10 µM [%] | SMILES
101 | O=C(c1nccs1)N1CCN(C2CC(=O)N(c3ccc4c(ccn4-c4ccc(C(F)(F)F)nn4)c3)C2)CC1 (stereo not drawn) [Example 128, 4-(4-(1,3-thiazol-2-ylcarbonyl)piperazin-1-yl)-1-(1-(6-(trifluoromethyl)pyridazin-3-yl)-1H-indol-5-yl)pyrrolidin-2-one]
100 | O=C(c1nccs1)N1CCN(C2CC(=O)N(c3cccc(-c4ncccc4C(F)(F)F)c3)C2)CC1 (stereo not drawn) [Example 165, 4-(4-(1,3-thiazol-2-ylcarbonyl)piperazin-1-yl)-1-(3-(3-(trifluoromethyl)pyridin-2-yl)phenyl)pyrrolidin-2-one]
100 | CCn1nccc1-c1cccc(N2CC(N3CCN(C(=O)c4nccs4)CC3)CC2=O)c1 (stereo not drawn) [Example 156, 1-(3-(1-ethyl-1H-pyrazol-5-yl)phenyl)-4-(4-(1,3-thiazol-2-ylcarbonyl)piperazin-1-yl)pyrrolidin-2-one]
100 | NC(=O)c1cccc(-c2cccc(N3CC(N4CCN(C(=O)c5nccs5)CC4)CC3=O)c2)c1 (stereo not drawn) [Example 98, 3′-(2-oxo-4-(4-(1,3-thiazol-2-ylcarbonyl)piperazin-1-yl)pyrrolidin-1-yl)biphenyl-3-carboxamide]
99 | O=C(c1nccs1)N1CCN(C2CC(=O)N(c3cccc(-c4ccsc4)c3)C2)CC1 (stereo not drawn) [Example 94, 4-(4-(1,3-thiazol-2-ylcarbonyl)piperazin-1-yl)-1-(3-(3-thienyl)phenyl)pyrrolidin-2-one]
101 | O=C(c1nccs1)N1CCN(C2CC(=O)N(c3cccc(-c4cccs4)c3)C2)CC1 (stereo not drawn) [Example 93, 4-(4-(1,3-thiazol-2-ylcarbonyl)piperazin-1-yl)-1-(3-(2-thienyl)phenyl)pyrrolidin-2-one]
100 | O=C(c1nccs1)N1CCN(C2CC(=O)N(c3ccc4c(ccn4-c4ccnc(C(F)(F)F)c4)c3)C2)CC1 (stereo not drawn) [Example 109, 4-(4-(1,3-Thiazol-2-ylcarbonyl)piperazin-1-yl)-1-(1-(2-(trifluoromethyl)pyridin-4-yl)-1H-indol-5-yl)pyrrolidin-2-one]
101 | CS(=O)(=O)Nc1cccc(-c2cccc(N3CC(N4CCN(C(=O)c5nccs5)CC4)CC3=O)c2)c1 (stereo not drawn) [Example 100, N-(3′-(2-oxo-4-(4-(1,3-thiazol-2-ylcarbonyl)piperazin-1-yl)pyrrolidin-1-yl)biphenyl-3-yl)methanesulfonamide]

same assay, conditions: MAGL inhibitory rate, test compound 10 μM, His-hMAGL, substrate 2-arachidonylglycerol, RapidFire-mass spectrometry

inhibition at 10 µM [%] | SMILES
96 | O=C(c1nccs1)N1CCN(C2CC(=O)N(c3ccc4c(c3)CCN4C(=O)C3CCOCC3)C2)CC1 (stereo not drawn) [Example 400, 1-(1-(tetrahydro-2H-pyran-4-ylcarbonyl)-2,3-dihydro-1H-indol-5-yl)-4-(4-(1,3-thiazol-2-ylcarbonyl)piperazin-1-yl)pyrrolidin-2-one]
103 | O=C(c1nccs1)N1CCN(C2CC(=O)N(c3cccc(-c4cccc5[nH]ccc45)c3)C2)CC1 (stereo not drawn) [Example 307, 1-(3-(1H-indol-4-yl)phenyl)-4-(4-(1,3-thiazol-2-ylcarbonyl)piperazin-1-yl)pyrrolidin-2-one]
100 | O=C(c1nccs1)N1CCN([C@@H]2CC(=O)N(c3ccc4c(cnn4-c4ccc(F)cc4)c3)C2)CC1 [Example 205, (4R)-1-(1-(4-fluorophenyl)-1H-indazol-5-yl)-4-(4-(1,3-thiazol-2-ylcarbonyl)piperazin-1-yl)pyrrolidin-2-one]
98 | N#Cc1ccc(-c2cccc(N3CC(N4CCN(C(=O)c5nccs5)CC4)CC3=O)c2)cc1 (stereo not drawn) [Example 295, 3′-(2-oxo-4-(4-(1,3-thiazol-2-ylcarbonyl)piperazin-1-yl)pyrrolidin-1-yl)biphenyl-4-carbonitrile]
96 | O=C(c1nccs1)N1CCN(C2CC(=O)N(c3cccc(-c4ccc(C(F)(F)F)cc4Cl)c3)C2)CC1 (stereo not drawn) [Example 305, 1-(2′-chloro-4′-(trifluoromethyl)biphenyl-3-yl)-4-(4-(1,3-thiazol-2-ylcarbonyl)piperazin-1-yl)pyrrolidin-2-one]
90 | O=C(c1nccs1)N1CCN([C@@H]2CC(=O)N(c3ccc4c(c3)CCN4c3cnc(C(F)(F)F)nc3)C2)CC1 [Example 391, (4R)-4-(4-(1,3-thiazol-2-ylcarbonyl)piperazin-1-yl)-1-(1-(2-(trifluoromethyl)pyrimidin-5-yl)-2,3-dihydro-1H-indol-5-yl)pyrrolidin-2-one]
103 | O=C(c1nccs1)N1CCN(C2CC(=O)N(c3cccc(-c4cccc(OC(F)(F)F)c4)c3)C2)CC1 (stereo not drawn) [Example 297, 4-(4-(1,3-thiazol-2-ylcarbonyl)piperazin-1-yl)-1-(3′-(trifluoromethoxy)biphenyl-3-yl)pyrrolidin-2-one]
95 | O=C(c1nccs1)N1CCN(C2CC(=O)N(c3ccc4c(c3)CCN4C(=O)CC(F)(F)F)C2)CC1 (stereo not drawn) [Example 399, 4-(4-(1,3-thiazol-2-ylcarbonyl)piperazin-1-yl)-1-(1-(3,3,3-trifluoropropanoyl)-2,3-dihydro-1H-indol-5-yl)pyrrolidin-2-one]
97 | O=C(c1nccs1)N1CCN(C2CC(=O)N(c3ccc(-c4ccco4)cc3)C2)CC1 (stereo not drawn) [Example 207, 1-(4-(2-furyl)phenyl)-4-(4-(1,3-thiazol-2-ylcarbonyl)piperazin-1-yl)pyrrolidin-2-one]
101 | O=C(c1nccs1)N1CCN(C2CC(=O)N(c3cc(-c4ccccc4F)c4[nH]ccc4c3)C2)CC1 (stereo not drawn) [Example 353, 1-(7-(2-Fluorophenyl)-1H-indol-5-yl)-4-(4-(1,3-thiazol-2-ylcarbonyl)piperazin-1-yl)pyrrolidin-2-one]
102 | Cc1nc(C)c(-c2cccc(N3CC(N4CCN(C(=O)c5nccs5)CC4)CC3=O)c2)s1 (stereo not drawn) [Example 258, 1-(3-(2,4-dimethyl-1,3-thiazol-5-yl)phenyl)-4-(4-(1,3-thiazol-2-ylcarbonyl)piperazin-1-yl)pyrrolidin-2-one(optical isomer)]
88 | CC(=O)Nc1ccccc1-c1cccc(N2CC(N3CCN(C(=O)c4nccs4)CC3)CC2=O)c1 (stereo not drawn) [Example 303, N-(3′-(2-oxo-4-(4-(1,3-thiazol-2-ylcarbonyl)piperazin-1-yl)pyrrolidin-1-yl)biphenyl-2-yl)acetamide]
101 | O=C(c1cscn1)N1CCN(C2CC(=O)N(c3cccc(-c4cccnc4Cl)c3)C2)CC1 (stereo not drawn) [Example 223, 1-(3-(2-chloropyridin-3-yl)phenyl)-4-(4-(1,3-thiazol-4-ylcarbonyl)piperazin-1-yl)pyrrolidin-2-one]
96 | C[C@@H]1CN(C(=O)c2nccs2)CCN1C1CC(=O)N(c2ccc3c(ccn3-c3ccc(F)cc3)c2)C1 (stereo partly drawn) [Example 359, 1-(1-(4-fluorophenyl)-1H-indol-5-yl)-4-((2R)-2-methyl-4-(1,3-thiazol-2-ylcarbonyl)piperazin-1-yl)pyrrolidin-2-one]
103 | O=C(c1nccs1)N1CCN(C2CC(=O)N(c3cccc(-c4cccc5ccccc45)c3)C2)CC1 (stereo not drawn) [Example 311, 1-(3-(1-naphthyl)phenyl)-4-(4-(1,3-thiazol-2-ylcarbonyl)piperazin-1-yl)pyrrolidin-2-one]
101 | Cc1cccc(-c2ccc(N3CC(N4CCN(C(=O)c5nccs5)CC4)CC3=O)cc2)c1 (stereo not drawn) [Example 208]
103 | O=C(c1nccs1)N1CCN(C2CC(=O)N(c3cccc(-c4cccc5[nH]ncc45)c3)C2)CC1 (stereo not drawn) [Example 318, 1-(3-(1H-indazol-4-yl)phenyl)-4-(4-(1,3-thiazol-2-ylcarbonyl)piperazin-1-yl)pyrrolidin-2-one]
97 | Cc1cn2c(-c3cccc(N4CC(N5CCN(C(=O)c6nccs6)CC5)CC4=O)c3)cccc2n1 (stereo not drawn) [Example 345, 1-(3-(2-methylimidazo[1,2-a]pyridin-5-yl)phenyl)-4-(4-(1,3-thiazol-2-ylcarbonyl)piperazin-1-yl)pyrrolidin-2-one]
94 | O=C(c1nccs1)N1CCN([C@@H]2CC(=O)N(c3cc4ccn(-c5ccc(C(F)(F)F)cn5)c4cn3)C2)CC1 [Example 402, (4R)-4-(4-(1,3-thiazol-2-ylcarbonyl)piperazin-1-yl)-1-(1-(5-(trifluoromethyl)pyridin-2-yl)-1H-pyrrolo[2,3-c]pyridin-5-yl)pyrrolidin-2-one]
99 | Cc1ccc(-c2ccccc2)cc1N1CC(N2CCN(C(=O)c3nccs3)CC2)CC1=O (stereo not drawn) [Example 247, 1-(4-methylbiphenyl-3-yl)-4-(4-(1,3-thiazol-2-ylcarbonyl)piperazin-1-yl)pyrrolidin-2-one]
99 | O=C(c1cscn1)N1CCN([C@@H]2CC(=O)N(c3ccc4c(c3)CCN4c3ncc(C(F)(F)F)cn3)C2)CC1 [Example 384, (4R)-4-(4-(1,3-thiazol-4-ylcarbonyl)piperazin-1-yl)-1-(1-(5-(trifluoromethyl)pyrimidin-2-yl)-2,3-dihydro-1H-indol-5-yl)pyrrolidin-2-one]

same assay, conditions: MAGL inhibitory rate, test compound 10 μM, His-hMAGL, substrate 2-arachidonylglycerol, RapidFire-mass spectrometry; 10 µM

% inhibition at 10 μM [%] | SMILES
85 | O=C1CC(N2CCN(c3ncccn3)CC2)CN1c1ccc2c(c1)CCN2c1ncc(C(F)(F)F)cn1 (stereo not drawn) [Example 430, 4-(4-(Pyrimidin-2-yl)piperazin-1-yl)-1-(1-(5-(trifluoromethyl)pyrimidin-2-yl)-2,3-dihydro-1H-indol-5-yl)pyrrolidin-2-one (optical isomer)]
